The values below come from patent publication US11073509B2, “Assays and methods for determining the responsiveness of an individual subject to a therapeutic agent” (Celcuity Inc., priority 2013, dated 2021).

Like-named read-outs stand apart in the source and are kept apart here.

The subject of assay [1] is patient breast cancer cell sample. As to the kind of experiment: CELx Pathway Shutdown single drug test (Example 4), impedance biosensor CReMS. The format is cell-based, human. Conditions: one patient breast cancer cell sample expected to be a responder. The procedure:
The physiologic change of the cells and drugs tested was measured with an impedance biosensor CReMS and the summary output from the CReMS is recorded in FIG. 4.
Cells: Cells from Patients B1, B2, B3, B4, B5, B6, B7, C1, C2, L1, and L2 were utilized and handled in the same manner as described in Example 1.
In those experiments involving a combination of drugs, the procedures described in Example 3 were utilized. The list of patient cells and the drug tested with the cells is characterized in FIG. 4.

For assay [2], the system named is Patient B1 breast cancer cells. As to the kind of experiment: CELx Anti-Proliferative test, impedance biosensor CReMS. The format is cell-based, human. The protocol:
(§1) The physiologic change of the B1 and B2 cells during the test was measured with an impedance biosensor CReMS and the output from the CReMS is recorded in FIGS. 2A and 2B. The comparison of the CELx test results and the third party clinical reference is recorded in FIG. 2C.
(§2) CReMS, microplate, reagents, and buffers: The CReMS, microplate, reagents, and buffers used in Example 1 are the same as those employed in Example 2, except for the therapeutic agent tested. […] Paclitaxel was purchased from Selleck Chemicals (TX, USA).
(§3) Cells: Breast Cancer cells from Patients B1 and B2 were utilized and handled in the same manner as described in Example 1.
(§4) Procedure: Between 6,000-12,000 cells in each well were seeded onto the impedance microplate containing 120 uL settling media with serum. […] The CReMS recording of physiologic change was maintained continuously from when the cells were first seeded on the microplate through complete cellular response, which was between 48-72 hours. The test was performed at 37° C., 5% CO2 and at 75% relative humidity.

For assay [3], the system named is Patient B2 breast cancer cells. The assay is described as above. Type of assay: cell-based, human. The protocol:
as §1, §2, §3, §4

Assay [4] deals with Patient B1 cells (HER2 overexpressing breast cancer). As to the kind of experiment: CELx Pathway Shutdown test, impedance biosensor CReMS, EGF stimulation. The format is cell-based, human. The text has this: (§5) CReM and microplate: A 4″×6″, 96-well impedance microplate was placed into a Roche Applied Science (Indianapolis, Ind.) xCELLigence SP impedance biosensor designed to maintain constant voltage while measuring simultaneously the impedance of every well. The change in impedance for a particular well is proportional to the number of cells and type of attachment the cells have with the impedance microplate. Changes in impedance indicate a response to perturbation of these small cell populations.
(§6) Cells: Cells from Patient B1 and B4 were utilized. […] Prior to addition to the impedance microplate, the cells were removed from their growth container with versene, counted, and re-suspended in media without serum or other growth factors.
(§7) Buffers and reagents: Standard media, serum, antibiotics (e.g. penicillin, streptomycin), and other buffers were purchased and used as delivered from ATCC (Manassas, Va., USA) or Life Technologies (Grand Island, N.Y.). Additional growth factor (mature human EGF ca6KDa) was purchased from R&D Systems (Minneapolis, Minn.) and prepared in buffered cell media without growth factors or serum.
(§8) Procedure: Between 6,000-12,000 cells in each well were seeded onto the impedance microplate containing 120 uL standard media with serum. The solution was replaced with media containing no serum to synchronize the cells with respect to physiologic state and pathway stimulation. Twenty microliters of drugs were added to the no-serum media two hours in advance of pathway stimulation.

Assay [5] relates to Patient B4 cells (HER2 overexpressing breast cancer). The description is as above. The format is cell-based, human.
From the text: as §5, §6, §7, §8

The conditions of assay [6]: cited from earlier work.
In assay [7] the test system is Patient C2 colon cancer cells. Kind of assay: CELx Combination test, impedance biosensor CReMS. Type of assay: cell-based, human. The conditions noted are these: Patient C2 cells (printed Patient 2), single drug.
Protocol: Cells: Colon cancer cells from Patients C1 and C2 were utilized and handled in the same manner as described in Example 1.
Procedure: Between 6,000-12,000 cells in each well were seeded into the impedance microplate containing 120 uL settling media with serum. The solution was replaced with media containing no serum to synchronize the cells with respect to physiologic state. […] The CReMS recording of physiologic change was maintained continuously from when the cells were first seeded on the microplate through complete cellular response, which was between 48-72 hours. The test was performed at 37° C., 5% CO2 and at 75% relative humidity.

With `COc1cc2ncnc(Nc3ccc(F)c(Cl)c3)c2cc1OCCCN1CCOCC1` [gefitinib], in assay [1], the “response in the CReMS testing” value is listed as “did not show a response”.

In the case of `CC(=O)O[C@H]1C(=O)[C@@]2(C)[C@H]([C@H](OC(=O)c3ccccc3)[C@]3(O)C[C@H](OC(=O)[C@H](O)[C@@H](NC(=O)c4ccccc4)c4ccccc4)C(C)=C1C3(C)C)[C@]1(OC(C)=O)CO[C@@H]1C[C@@H]2O` [paclitaxel, Paclitaxel], the “CELx test prediction of patient response” value in assay [2] (Patient B1) and in assay [3] (Patient B2) was “will respond” each time. In addition, the “responsiveness of test cells (decrease in CReM output compared to control cells)” value was “immediate and continuous responsiveness” in assay [2] (Patient B1 cells, continuous recording 48-72 hours); “initial responsiveness” in assay [3] (Patient B2 cells, continuous recording 48-72 hours). In addition, the “time after which the CReM output reverses (test cells begin proliferating, no longer responsive)” value in assay [3] (Patient B2 cells) is “roughly 24 hours”.

In the case of `CS(=O)(=O)CCNCc1ccc(-c2ccc3ncnc(Nc4ccc(OCc5cccc(F)c5)c(Cl)c4)c3c2)o1` [lapatinib, Lapatinib], the “CELx test prediction of patient response” value in assay [4] (Patient B1) was “will respond”; in assay [5] it was “would respond”. Further, the “change (decrease) of cell index of test cells after drug” value in assay [4] (Patient B1 cells, pathway stimulated with receptor ligand (EGF), vs stimulated cells without drug) was “over 50%”. Moreover, the “patient responsiveness recorded by clinical reference standard” value in assay [6] (Patient B1) and in assay [6] (Patient B4) was “responsive” each time.

In the case of `CCc1c2c(nc3ccc(OC(=O)N4CCC(N5CCCCC5)CC4)cc13)-c1cc3c(c(=O)n1C2)COC(=O)[C@]3(O)CC` [irinotecan, Irinotecan], in assay [7], the “responsiveness to the individual drug” value is “responsive”.
